Results taken from patent US12448399B2, “Cereblon-based KRAS degrading PROTACs and uses related thereto” (Arvinas Operations, Inc., priority 2023, dated 2025).

Target: T1, KRas-G12D (Homo sapiens, UniProt P01116, G12D)
T1 construct: insert the HiBiT tag onto the N-terminus of one or more of the endogenous KRas alleles; host or cells: AsPC-1 HiBiT-KRasG12D knock-in clone (one tagged allele, two untagged KRasG12D alleles)
Assay: HiBiT Degradation Assay (G12D), AsPC-1 HiBiT-KRasG12D cells, 24 hr
Format: cell-based
Conditions: for Dmax: ASPC1, AsPC-1 cells, maximum degradation observed; for DC50: AsPC-1 cells
Method: AsPC-1 (CRL-1682) cells were purchased from ATCC and are homozygous for the G12D mutation in KRas. AsPC-1 cells were cultured in GIBCO RPMI-1640 (ThermoFisher Scientific, catalog #61870-036, with Glutamax, no HEPES, no Na Pyruvate) supplemented with 10% FBS (ThermoFisher Scientific, catalog #2060357) and 1× Penicillin-Streptomycin (ThermoFisher Scientific, catalog #15140122, 10000 U/ml, 100×). For degradation assays, 384 well plates were used. Alamar blue was purchased from ThermoFisher Scientific (A50101) and used according to manufacturer instructions. The Nano-Glo® HiBiT Lytic Detection System and Nano-Glo® HiBiT Blotting System were purchased from Promega (#N3050 and #N2410) and used according to manufacturer instructions.
To create the AsPC-1 HiBiT-KRasG12D cell line, CRISPR-Cas9 was used to insert the HiBiT tag onto the N-terminus of one or more of the endogenous KRas alleles. See Schwinn, M. K. et al. (2018) CRISPR-mediated tagging of endogenous proteins with a luminescent peptide, ACS Chem. Biol. 13(2), 467-474. After knock-in of the tag, individual clones were isolated by single cell dilution and screened for HiBiT insertion by PCR. A clone was identified that contained the desired HiBiT-KRasG12D sequence at one allele while the remaining two KRasG12D alleles were untagged. This clone was used in further studies.
AsPC-1 HiBiT-KRasG12D cells were plated at 9000 or 15,000 cells/well in a 384 well plate (Corning #3770). Compounds of the present disclosure and positive controls were diluted in the appropriate cell media and applied to the plated cells resulting in a final concentration titration of 10 μM to […] in 0.5% DMSO. Gambogic acid was used as a positive control for cytotoxicity and titrated from 10 μM to 78 nM. All assays were performed in triplicate. Cells were treated with compounds for 24 hr at 37° C. in an incubator containing 5% CO2. Following treatment, alamar blue was used to determine if any compounds led to a loss in cell viability after 24 hr. The 10× alamar blue reagent was added to a final concentration of 1× as recommended by the manufacturer and cells were returned to the incubator for 4 hr. Plates were then allowed to equilibrate to RT and fluorescence was measured using a Perkin-Elmer EnVision. After completion of the fluorescence read, the liquid from each well was removed and the cells were washed with PBS. The Nano-Glo® HiBiT detection reagent was prepared according to the manufacturer's instructions and added to each well after the PBS wash was removed. Following incubation at room temperature for 45 min, the luminescence was read using the ultra-sensitive luminescence aperture on the Envision instrument.
Fluorescence values from the alamar blue treatment were normalized to the DMSO-only control for each compound titration. HiBiT luminescence was normalized to the DMSO-only control and the fractional HiBiT signal was plotted versus the log of the PROTAC concentration and fit to a 4-parameter dose-response model to obtain the concentration of the compound that leads to half maximal degradation (DC50) as well as the maximum degradation observed (Dmax, conventionally expressed as a percentage of control).

T1 sequence (P01116 1-188 isoform P01116-2 G12D): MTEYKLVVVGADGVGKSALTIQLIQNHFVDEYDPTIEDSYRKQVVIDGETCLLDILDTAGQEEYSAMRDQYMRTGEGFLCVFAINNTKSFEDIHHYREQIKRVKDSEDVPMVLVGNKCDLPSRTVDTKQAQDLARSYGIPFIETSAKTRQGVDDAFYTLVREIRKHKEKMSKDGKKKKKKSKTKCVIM

Row | SMILES | Dmax [%] | DC50 [nM]
1 | C#Cc1c(F)ccc2cc(O)cc(-c3ncc4c(N5CC6CCC(C5)N6)nc(OCCN5CCC(F)(CC6CCN(CC7CCN(c8cccc9c8CN(C8CCC(=O)NC8=O)C9=O)CC7)CC6)CC5)nc4c3F)c12 (stereo not shown) [Compound 124, 3-{4-[4-({4-[(1-{2-[(4-{3,8-diazabicyclo[3.2.1]octan-3-yl}-7-(8-ethynyl-7-fluoro-3-hydroxynaphthalen-1-yl)-8-fluoropyrido[4,3-d]pyrimidin-2-yl)oxy]ethyl}-4-fluoropiperidin-4-yl)methyl]piperidin-1-yl}methyl)piperidin-1-yl]-1-oxo-2,3-dihydro-1H-isoindol-2-yl}piperidine-2,6-dione] | > 70 | < 5100
2 | CCc1cccc2cc(O)cc(-c3ncc4c(N5CC6CCC(C5)N6)nc(OCCN5CCC(CC6CCN(c7cccc8c7C(=O)N(C7CCC(=O)NC7=O)C8=O)CC6)CC5)nc4c3F)c12 (stereo not shown) [Compound 66, 4-[4-[[1-[2-[4-(3,8-diazabicyclo[3.2.1]octan-3-yl)-7-(8-ethyl-3-hydroxy-1-naphthyl)-8-fluoro-pyrido[4,3-d]pyrimidin-2-yl]oxyethyl]-4-piperidyl]methyl]-1-piperidyl]-2-(2,6-dioxo-3-piperidyl)isoindoline-1,3-dione] | ≤ 25 | 250 to 1000
3 | CCc1cccc2cc(O)cc(-c3ncc4c(N5CC6CCC(C5)N6)nc(OC[C@]56CCCN5[C@@H](COC(=O)N5CCN(c7cccc8c7CN(C7CCC(=O)N(C)C7=O)C8=O)CC5)CC6)nc4c3F)c12 (stereo partly drawn) [Compound 54, [(3R,8R)-8-[[4-(3,8-diazabicyclo[3.2.1]octan-3-yl)-7-(8-ethyl-3-hydroxy-1-naphthyl)-8-fluoro-pyrido[4,3-d]pyrimidin-2-yl]oxymethyl]-1,2,3,5,6,7-hexahydropyrrolizin-3-yl]methyl4-[2-(1-methyl-2,6-dioxo-3-piperidyl)-1-oxo-isoindolin-4-yl]piperazine-1-carboxylate] | ≤ 25 | 250 to 1000
4 | C#Cc1c(F)ccc2cc(O)cc(-c3ncc4c(N5C[C@H]6CC[C@@H](C5)N6)nc(OC[C@@H]5C[C@@H](OC6CCN(CC7CCN(c8ccc9c(c8Cl)CN(C8CCC(=O)NC8=O)C9=O)CC7)CC6)CN5C)nc4c3F)c12 (stereo partly drawn) [Compound 113, 3-(5-(4-((4-(((3R,5S)-5-(((4-((1R,5S)-3,8-diazabicyclo[3.2.1]octan-3-yl)-7-(8-ethynyl-7-fluoro-3-hydroxynaphthalen-1-yl)-8-fluoropyrido[4,3-d]pyrimidin-2-yl)oxy)methyl)-1-methylpyrrolidin-3-yl)oxy)piperidin-1-yl)methyl)piperidin-1-yl)-4-chloro-1-oxoisoindolin-2-yl)piperidine-2,6-dione] | > 70 | < 5100
5 | CCc1cccc2cc(O)cc(-c3ncc4c(N5CC6CCC(C5)N6)nc(OCCN5CCC(CC6CCN(c7cccc8c7CN(C7CCC(=O)N(C)C7=O)C8=O)CC6)CC5)nc4c3F)c12 (stereo not shown) [Compound 45] | – | 250 to 1000
6 | CCc1cccc2c(F)c(O)cc(-c3ncc4c(N5CC6CCC(C5)N6)nc(OCCN5CCC(CC6CCN(c7cccc8c7CN(C7CCC(=O)NC7=O)C8=O)CC6)CC5)nc4c3F)c12 (stereo not shown) [Compound 158] | ≤ 25 | > 1000
7 | CCc1cccc2cc(O)cc(-c3ncc4c(N5CC6CCC(C5)N6)nc(OCCN5CCN(CC6CCN(c7ccc(OC)c(C(=O)NC8CCC(=O)NC8=O)c7)CC6)CC5)nc4c3F)c12 (stereo not shown) [Compound 15] | – | 250 to 1000
8 | CCc1c(F)ccc2cc(O)cc(-c3ncc4c(N5CC6CCC(C5)N6)nc(OCCN5CCC(F)(CC6CCN(CC7CCN(c8ccc9c(c8)n(C)c(=O)n9C8CCC(=O)NC8=O)CC7)CC6)CC5)nc4c3F)c12 (stereo not shown) [Compound 182, 3-{5-[4-({4-[(1-{2-[(4-{3,8-diazabicyclo[3.2.1]octan-3-yl}-7-(8-ethyl-7-fluoro-3-hydroxynaphthalen-1-yl)-8-fluoropyrido[4,3-d]pyrimidin-2-yl)oxy]ethyl}-4-fluoropiperidin-4-yl)methyl]piperidin-1-yl}methyl)piperidin-1-yl]-3-methyl-2-oxo-2,3-dihydro-1H-1,3-benzodiazol-1-yl}piperidine-2,6-dione] | > 70 | < 5100
9 | CCc1cccc2cc(O)cc(-c3ncc4c(N5CC6CCC(C5)N6)nc(OC[C@@H]5C[C@@H](OC6CCN(c7cccc8c7CN(C7CCC(=O)NC7=O)C8=O)CC6)CN5C)nc4c3F)c12 (stereo partly drawn) [Compound 118, 3-[4-(4-{[(3R,5S)-5-{[(4-{3,8-diazabicyclo[3.2.1]octan-3-yl}-7-(8-ethyl-3-hydroxynaphthalen-1-yl)-8-fluoropyrido[4,3-d]pyrimidin-2-yl)oxy]methyl}-1-methylpyrrolidin-3-yl]oxy}piperidin-1-yl)-1-oxo-2,3-dihydro-1H-isoindol-2-yl]piperidine-2,6-dione] | – | > 1000
10 | C#Cc1c(F)ccc2cc(O)cc(-c3ncc4c(N5CC6CCC(C5)N6)nc(OCC5(CN6CCC(CN7CCN(c8ccc9c(c8Cl)CN(C8CCC(=O)NC8=O)C9=O)CC7)CC6)CC5)nc4c3F)c12 (stereo not shown) [Compound 187, 3-{4-chloro-5-[4-({1-[(1-{[(4-{3,8-diazabicyclo[3.2.1]octan-3-yl}-7-(8-ethynyl-7-fluoro-3-hydroxynaphthalen-1-yl)-8-fluoropyrido[4,3-d]pyrimidin-2-yl)oxy]methyl}cyclopropyl)methyl]piperidin-4-yl}methyl)piperazin-1-yl]-1-oxo-2,3-dihydro-1H-isoindol-2-yl}piperidine-2,6-dione] | > 70 | < 5100
11 | CCc1cccc2cc(O)cc(-c3ncc4c(N5CC6CCC(C5)N6)nc(OCCN5CCC(CN6CCN(c7ccc8c(c7)C(=O)N(C7CCC(=O)NC7=O)C8=O)CC6)CC5)nc4c3F)c12 (stereo not shown) [Compound 32] | – | 250 to 1000
12 | C#Cc1c(F)ccc2cc(O)cc(-c3ncc4c(N5CC6CCC(C5)N6)nc(OC[C@@H]5C[C@@H](OC6CCN(CC7CCN(c8ccc9c(c8F)n(C(C)C)c(=O)n9C8CCC(=O)NC8=O)CC7)CC6)CN5C)nc4c3F)c12 (stereo partly drawn) [Compound 224, 3-(5-{4-[(4-{[(3R,5S)-5-{[(4-{3,8-diazabicyclo[3.2.1]octan-3-yl}-7-(8-ethynyl-7-fluoro-3-hydroxynaphthalen-1-yl)-8-fluoropyrido[4,3-d]pyrimidin-2-yl)oxy]methyl}-1-methylpyrrolidin-3-yl]oxy}piperidin-1-yl)methyl]piperidin-1-yl}-4-fluoro-2-oxo-3-(propan-2-yl)-2,3-dihydro-1H-1,3-benzodiazol-1-yl)piperidine-2,6-dione] | > 70 | < 5100
13 | C#Cc1c(F)ccc2cc(O)cc(-c3ncc4c(N5CC6CCC(C5)N6)nc(OCCN5CCC(CN6CCN(CC7CCN(c8ccc9c(c8)n(C(C)C)c(=O)n9C8CCC(=O)NC8=O)CC7)CC6)CC5)nc4c3F)c12 (stereo not shown) [Compound 222, 3-{5-[4-({4-[(1-{2-[(4-{3,8-diazabicyclo[3.2.1]octan-3-yl}-7-(8-ethynyl-7-fluoro-3-hydroxynaphthalen-1-yl)-8-fluoropyrido[4,3-d]pyrimidin-2-yl)oxy]ethyl}piperidin-4-yl)methyl]piperazin-1-yl}methyl)piperidin-1-yl]-2-oxo-3-(propan-2-yl)-2,3-dihydro-1H-1,3-benzodiazol-1-yl}piperidine-2,6-dione] | > 70 | < 5100
